Experimental data from patent publication US20130116227A1, “BIARYL AMIDE DERIVATIVE OR PHARMACEUTICALLY ACCEPTABLE SALT THEREOF” (DAINIPPON SUMITOMO PHARMA CO., LTD., priority 2010, published 2013).

Biological target: T1, aldosterone receptor (Rattus norvegicus, UniProt P22199)
T1 construct: centrifuged at 105,000 g for 30 minutes, and then a supernatant was collected as a renal soluble fraction; from tissue; host or cells: rat kidney (adrenalectomized rat), 105,000 g supernatant (cytosol)
T1 sequence (P22199 1-981): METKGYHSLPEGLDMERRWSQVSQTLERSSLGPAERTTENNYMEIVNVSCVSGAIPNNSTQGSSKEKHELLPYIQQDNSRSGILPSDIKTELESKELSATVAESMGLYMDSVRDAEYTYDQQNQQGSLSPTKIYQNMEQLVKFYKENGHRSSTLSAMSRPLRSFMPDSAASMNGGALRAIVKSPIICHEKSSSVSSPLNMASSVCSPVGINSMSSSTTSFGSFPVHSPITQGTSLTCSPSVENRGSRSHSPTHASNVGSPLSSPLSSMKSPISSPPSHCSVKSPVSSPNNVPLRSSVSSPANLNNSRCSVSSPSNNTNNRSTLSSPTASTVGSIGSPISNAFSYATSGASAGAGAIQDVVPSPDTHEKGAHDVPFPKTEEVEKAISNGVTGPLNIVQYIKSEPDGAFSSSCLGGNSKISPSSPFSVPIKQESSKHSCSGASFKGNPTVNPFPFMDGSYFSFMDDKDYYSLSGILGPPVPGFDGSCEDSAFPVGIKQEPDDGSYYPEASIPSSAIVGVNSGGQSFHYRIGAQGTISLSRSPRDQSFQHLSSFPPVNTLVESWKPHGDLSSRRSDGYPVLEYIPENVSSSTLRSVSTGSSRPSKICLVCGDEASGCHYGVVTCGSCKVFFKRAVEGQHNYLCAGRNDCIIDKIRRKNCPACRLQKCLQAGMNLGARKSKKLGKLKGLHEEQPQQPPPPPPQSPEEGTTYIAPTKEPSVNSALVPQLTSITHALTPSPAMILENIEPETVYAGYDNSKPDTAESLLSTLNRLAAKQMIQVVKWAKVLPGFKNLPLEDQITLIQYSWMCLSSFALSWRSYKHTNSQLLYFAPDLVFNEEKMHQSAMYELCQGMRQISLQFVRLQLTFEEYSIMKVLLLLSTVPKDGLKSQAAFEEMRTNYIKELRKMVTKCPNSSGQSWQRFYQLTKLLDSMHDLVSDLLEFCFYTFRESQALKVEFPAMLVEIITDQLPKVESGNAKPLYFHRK
Experiment: Binding inhibition test for aldosterone receptor ([3H]aldosterone, rat renal soluble fraction)
Details: [3H]aldosterone 2 nM, rat renal soluble fraction, in the presence of 2 μM RU-486, 4° C. about 18 hours; read-out: MR IC50
Method: Binding Inhibition Test for Aldosterone Receptor
A rat was layed open in flank regions (on both sides) to remove both adrenal glands. After stitching up the incision, the rat was returnd to a breeding cage again. After removing the kidney from the rat reared for about 3 to 5 days, the kidney was homogenized in 0.1 M Tris-HCl, 0.25M sucrose, 0.1M Na2MoO4 and 2 mM DTT buffer solution (pH7.4). The resultant was centrifuged at 105,000 g for 30 minutes, and then a supernatant was collected as a renal soluble fraction.
The rat renal soluble fraction (0.5 to 1.5 mg), a labeled ligand [^3H] aldosterone (2 nM) and a test article were reacted in the presence of 2 μM RU-486 (glucocorticoid receptor antagonist) in 100 μL of total amounts at 4° C. for about 18 hours. Afterwards, to the reaction solution was added 50 μL of 5% dextran-coated activated charcoal, and the mixture was immingled, and then centrifuged at 3,000 g for 5 minutes. Then, a supernatant (100 μL) was collected and mixed with a liquid scintillator ACS-II (Amersham) (3.5 mL), and then analyzed its radioactivity by a liquid scintillation counter (manufactured by Packard, Tri Carb 2700TR). A non-specific binding was obtained by addition of 2 μM aldosterone to a reaction solution. […]
Binding inhibition rate (%)=100−{(B−N)/(B0−N)}×100
B: labeled ligand binding amounts in the presence of a test article and a labeled ligand
B0: labeled ligand binding amounts in the absence of a test article
N: labeled ligand binding amounts in the presence of excess aldosterone (2 μM)
Test example 1 was carried out for compounds obtained in the Examples.

IC50 [nM] | Compound
1600 | COc1cc(NC(=O)c2ccc(-c3cccnc3C3CC3)c(C)c2)ccc1S(N)(=O)=O [Example 533]
680 | COc1cc(NC(=O)c2ccc(-c3ccccc3C(F)(F)F)c(C(O)C(F)(F)F)c2)ccc1S(N)(=O)=O (stereo not drawn) [Example 244]
< 10000 | CCOCc1cc(C(=O)Nc2ccc(S(N)(=O)=O)c(OC)c2)ccc1-c1cccnc1OCC [Example 547]
< 10000 | COC(=O)Nc1cc(C(=O)Nc2ccc(S(N)(=O)=O)c(OC)c2)ccc1-c1ccccc1OC(F)(F)F [Example 578]
260 | COc1cc(C(=O)Nc2ccc(S(N)(=O)=O)c(OC)c2)ccc1-c1ccccc1C(F)(F)F [Example 59]
2000 | COc1cc(NC(=O)c2ccc(-c3ccccc3C(F)(F)F)c(COCC3CCCN(C)C3)c2)ccc1S(N)(=O)=O (stereo not drawn) [Example 99]
82 | COc1cc(NC(=O)c2ccc(-c3ccccc3C(F)(F)F)c(COCC(OC)OC)c2)ccc1S(N)(=O)=O [Example 104]
200 | CCOc1cc(C(=O)Nc2ccc(S(N)(=O)=O)c(OC)c2)ccc1-c1ccccc1C(F)(F)F [Example 60]
350 | Cn1cccc1CNCc1cc(C(=O)Nc2ccc(S(C)(=O)=O)cc2)ccc1-c1ccccc1OC(F)(F)F [Example 182]
250 | COc1cc(NC(=O)c2ccc(-c3ccccc3OC(F)(F)F)c(CN3CC(F)(F)C3)c2)ccc1S(N)(=O)=O [Example 287]
4700 | COc1cc(NC(=O)c2ccc(-c3ccccc3C)cc2)ccc1S(N)(=O)=O [Example 14]
3000 | COc1cc(NC(=O)c2ccc(-c3ccccc3-c3nc(C)no3)cc2)ccc1S(N)(=O)=O [Example 46]
100 | CCN(CC)c1cc(C(=O)Nc2ccc(S(N)(=O)=O)c(OC)c2)ccc1-c1ccccc1OC(F)(F)F [Example 561]
100 | CCOCc1cc(NC(=O)c2ccc(S(N)(=O)=O)c(OC)c2)ccc1-c1ccccc1C(F)(F)F [Example 373]
360 | CCN(CC)c1cc(C(=O)Nc2ccc(S(N)(=O)=O)cc2)ccc1-c1ccccc1OC(F)(F)F [Example 265]
1400 | COc1cc(NC(=O)c2ccc(-c3ccccc3C(C)C)cc2)ccc1S(N)(=O)=O [Example 36]
520 | COc1cc(C(=O)Nc2ccc(-c3ccccc3C(F)(F)F)c(CN3CCC4(CC3)OCCO4)c2)ccc1S(N)(=O)=O [Example 393]
> 10000 | NS(=O)(=O)c1cccc(NC(=O)c2ccc(-c3ccccc3)c(CN3CCCCC3)c2)c1 [compound 2]
630 | COc1cc(NC(=O)c2ccc(-c3ccccc3C)c(CNCC(F)F)c2)ccc1S(N)(=O)=O [Example 415]
< 10000 | COc1ccc(-c2ccc(C(=O)Nc3ccc(S(N)(=O)=O)c(OC)c3)cc2CNCC(F)F)c(C)c1 [Example 592]
940 | CS(=O)(=O)c1ccc(NC(=O)c2ccc(-c3ccccc3OC(F)(F)F)c(CN3CCC(F)(F)CC3)c2)cc1 [Example 174]
550 | COc1cc(NC(=O)c2ccc(-c3ccccc3Cl)c(CNCC(F)F)c2)ccc1S(N)(=O)=O [Example 451]
290 | CCN(CC)Cc1cc(C(=O)Nc2ccc(S(C)(=O)=O)cc2)ccc1-c1ccccc1OC(F)(F)F [Example 159]
280 | CS(=O)(=O)c1ccc(NC(=O)c2ccc(-c3ccccc3OC(F)(F)F)c(CN3CC[C@@H](F)C3)c2)cc1 [Example 510]
580 | COc1cc(NC(=O)c2ccc(-c3ccc(F)cc3Cl)c(CNCC(F)F)c2)ccc1S(N)(=O)=O [Example 426]
280 | COc1cc(C(=O)Nc2ccc(-c3ccccc3C(F)(F)F)c(COCCCO)c2)ccc1S(N)(=O)=O [Example 333]
< 10000 | CC(C)CCNCc1cc(C(=O)Nc2ccc(S(C)(=O)=O)cc2)ccc1-c1ccccc1OC(F)(F)F [Example 226]

IC50 [nM] | Compound
700 | CS(=O)(=O)c1ccc(NC(=O)c2ccc(-c3ccccc3OC(F)(F)F)c(CNC3CC3)c2)cc1 [Example 513]
450 | COc1cc(C(=O)Nc2ccc(-c3ccccc3C(F)(F)F)c(CN3CC(C)OC(C)C3)c2)ccc1S(N)(=O)=O (stereo not drawn) [Example 371]
3300 | COC(=O)c1ccccc1-c1ccc(C(=O)Nc2ccc(S(N)(=O)=O)c(OC)c2)cc1 [Example 19]
< 10000 | COc1cc(NC(=O)c2ccc(-c3ccccc3OC(F)(F)F)c(NCc3nccn3C)c2)ccc1S(N)(=O)=O [Example 577]
170 | CCNc1cc(C(=O)Nc2ccc(S(N)(=O)=O)c(OC)c2)ccc1-c1ccccc1C(F)(F)F [Example 131]
2200 | CCCOc1ccc(-c2ccc(NC(=O)c3ccc(S(N)(=O)=O)c(OC)c3)cc2CO)c(C(F)(F)F)c1 [Example 313]
750 | COc1cc(C(=O)Nc2ccc(-c3ccccc3C(F)(F)F)c(CC#N)c2)ccc1S(N)(=O)=O [Example 363]
< 10000 | COc1cc(C(=O)Nc2ccc(-c3ccccc3C(F)(F)F)c(CNCC(F)(F)F)c2)ccc1S(N)(=O)=O [Example 528]
630 | COc1cc(C(=O)Nc2ccc(-c3ccccc3C(F)(F)F)c(CN3CC(F)(F)C3)c2)ccc1S(N)(=O)=O [Example 385]
1900 | COc1cc(NC(=O)c2ccc(-c3ccccc3C(F)(F)F)c(OCc3ccccc3)c2)ccc1S(N)(=O)=O [Example 62]
61 | COc1cc(NC(=O)c2ccc(-c3ccccc3OC(F)(F)F)c(CN3CC(C)OC(C)C3)c2)ccc1S(N)(=O)=O (stereo not drawn) [Example 302]
530 | COc1cc(NC(=O)c2ccc(-c3ccccc3C(F)(F)F)c(CN(C)C)c2)ccc1S(N)(=O)=O [Example 72]
< 10000 | CCCOc1ncccc1-c1ccc(C(=O)Nc2ccc(S(N)(=O)=O)c(OC)c2)cc1CNCC(F)F [Example 481]
< 10000 | COc1cc(NC(=O)c2ccc(-c3cc(C)ccc3C(F)(F)F)c(CNCC(F)F)c2)ccc1S(N)(=O)=O [Example 443]
120 | COc1cc(NC(=O)c2ccc(-c3ccccc3C(F)(F)F)c(CCl)c2)ccc1S(N)(=O)=O [Example 81]
< 10000 | COc1cc(NC(=O)c2ccc(-c3ccc(Cl)cc3C(F)(F)F)c(CNCC(F)F)c2)ccc1S(N)(=O)=O [Example 474]
190 | CCCN(Cc1cc(C(=O)Nc2ccc(S(C)(=O)=O)cc2)ccc1-c1ccccc1OC(F)(F)F)CC1CC1 [Example 500]
250 | CS(=O)(=O)c1ccc(NC(=O)c2ccc(-c3ccccc3C(F)(F)F)c(CO)c2)cc1 [Example 65]
220 | COc1cc(C(=O)Nc2ccc(-c3ccccc3C(F)(F)F)c(CNCc3ccco3)c2)ccc1S(N)(=O)=O [Example 329]
210 | COc1cc(C(=O)Nc2ccc(-c3ccccc3C(F)(F)F)c(Cn3cccn3)c2)ccc1S(N)(=O)=O [Example 405]
< 10000 | CS(=O)(=O)c1ccc(NC(=O)c2ccc(-c3ccccc3OC(F)(F)F)c(CNCC3CCCCC3)c2)cc1 [Example 221]
290 | CCCN(CCC)Cc1cc(C(=O)Nc2ccc(S(C)(=O)=O)cc2)ccc1-c1ccccc1OC(F)(F)F [Example 505]
520 | COc1cc(NC(=O)c2ccc(-c3ccccc3C(F)(F)F)c(OCCO)c2)ccc1S(N)(=O)=O [Example 121]
370 | COc1cc(NC(=O)c2ccc(-c3ccc(N)cc3C(F)(F)F)c(C)c2)ccc1S(N)(=O)=O [Example 271]
< 10000 | CS(=O)(=O)c1ccc(NC(=O)c2ccc(-c3ccccc3OC(F)(F)F)c(CNCCOc3ccccc3)c2)cc1 [Example 190]
400 | COc1cc(NC(=O)c2ccc(-c3ccc(O)cc3C(F)(F)F)c(C)c2)ccc1S(N)(=O)=O [Example 272]

Same assay, conditions: read-out: Inhibition rates (%) in 100 μM

inhibition at 100 µM [%] | Compound
11 | NS(=O)(=O)c1cccc(NC(=O)c2ccc(-c3ccccc3)c(CN3CCCCC3)c2)c1 [compound 2]
